Assay results from patent US12421253B2 (Mirati Therapeutics, Inc., priority 2020, dated 2025).

Experiments:
ASPC1 cells, pERK = assay: Inhibition of KRas phosphorylation of ERK (Cisbio HTRF Advanced pERK assay); assay type: cell-based; conditions: Homo sapiens, ASPC1, 3 h, AsPC-1 cells, read-out: Inhibition (HTRF IC50 nM) of KRas-mediated Phosphorylation of ERK, AsPC-1
How it was run: (§1)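 Cells seeded at 6,000/well in RPMI with 10% FBS, grown overnight at 37 °C, then exposed 3 h to 10-dose 3-fold compound series from 10 uM (0.8% DMSO final); 0.2 uM trametinib as minimum control. Lysates read for pERK by HTRF after 2 h antibody incubation at room temperature.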

H358 cells, pERK = assay: as above; assay type: cell-based; conditions: Homo sapiens, NCI-H358, 3 hrs, read-out: Inhibition (HTRF IC50 nM) of KRas-mediated Phosphorylation of ERK, H358
How it was run: as §1

H727 cells, pERK = assay: as above; assay type: cell-based; conditions: Homo sapiens, NCI-H727, 3 h, read-out: Inhibition (HTRF IC50 nM) of KRas-mediated Phosphorylation of ERK, H727
How it was run: as §1

PSN1 cells, pERK = assay: as above; assay type: cell-based; conditions: Homo sapiens, PSN1, 3 h, read-out: Inhibition (HTRF IC50 nM) of KRas-mediated Phosphorylation of ERK, PSN1
How it was run: as §1

H460 cells, pERK = assay: as above; assay type: cell-based; conditions: Homo sapiens, NCI-H460, 3 hrs, read-out: Inhibition (HTRF IC50 nM) of KRas-mediated Phosphorylation of ERK, H460
How it was run: as §1

MKN1 cells, pERK = assay: as above; assay type: cell-based; conditions: Homo sapiens, MKN-1, 3 h, read-out: Inhibition (HTRF IC50 nM) of KRas-mediated Phosphorylation of ERK, MKN1
How it was run: as §1

HCT116 cells, pERK = assay: as above; assay type: cell-based; conditions: Homo sapiens, HCT-116, 3 hrs, read-out: Inhibition (HTRF IC50 nM) of KRas-mediated Phosphorylation of ERK, HCT116
How it was run: as §1

KRas^G12V = target: T1, KRas^G12V (Homo sapiens, UniProt P01116, G12V); assay: KRas binding assay (TR-FRET displacement of Cy5 labelled tracer)
T1 construct: […]; biotin (biotinylated); purchased Accelegan Inc
T1 sequence (P01116 1-169 isoform P01116-2 G12V): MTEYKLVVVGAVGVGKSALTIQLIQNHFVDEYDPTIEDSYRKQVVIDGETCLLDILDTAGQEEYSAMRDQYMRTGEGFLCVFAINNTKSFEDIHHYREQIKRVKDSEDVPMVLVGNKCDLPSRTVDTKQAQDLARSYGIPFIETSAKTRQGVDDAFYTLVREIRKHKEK

KRas^G12D = target: T2, KRas^G12D (Homo sapiens, UniProt P01116, G12D); assay: as above
T2 construct: […]; biotin (biotinylated); purchased Accelegan Inc
T2 sequence (P01116 1-169 isoform P01116-2 G12D): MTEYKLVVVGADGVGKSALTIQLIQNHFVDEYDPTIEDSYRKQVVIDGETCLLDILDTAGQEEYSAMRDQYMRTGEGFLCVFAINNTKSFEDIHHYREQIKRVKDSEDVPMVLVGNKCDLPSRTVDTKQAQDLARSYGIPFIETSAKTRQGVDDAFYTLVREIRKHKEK

KRas^G12R = target: T3, KRas^G12R (Homo sapiens, UniProt P01116, G12R); assay: as above
T3 construct: […]; biotin (biotinylated); purchased Accelegan Inc
T3 sequence (P01116 1-169 isoform P01116-2 G12R): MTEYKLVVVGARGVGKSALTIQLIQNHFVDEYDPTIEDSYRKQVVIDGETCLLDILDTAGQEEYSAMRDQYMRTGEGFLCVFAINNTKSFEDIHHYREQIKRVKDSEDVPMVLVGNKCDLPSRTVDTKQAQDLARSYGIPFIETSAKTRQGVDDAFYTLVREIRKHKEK

A549 cells, pERK = assay: Inhibition of KRas phosphorylation of ERK (Cisbio HTRF Advanced pERK assay); assay type: cell-based; conditions: Homo sapiens, 3 hrs, read-out: Inhibition (HTRF IC50 nM) of KRas-mediated Phosphorylation of ERK, A549
How it was run: as §1

[1] = test system: NCI-H460 (Q61H) cells, phospho-ERK; assay: Inhibition of KRas-mediated phosphorylation of ERK (phospho-ERK/GAPDH antibody detection, LI-COR); assay type: cell-based; conditions: Homo sapiens, 3 hours
How it was run: (§2)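 Cells seeded 20,000/well, attached 12-14 h, then compound (0.5% DMSO) for 3 h. Formaldehyde-fixed, methanol-permeabilized cells stained for phospho-ERK (Thr202/Tyr204) and GAPDH; infrared imaging. Ratio expressed as % of DMSO control; IC50 from 4-parameter fit.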

[2] = test system: AsPC-1 (G12D) cells, phospho-ERK; assay: as above; assay type: cell-based; conditions: Homo sapiens, ASPC1, 3 hours
How it was run: as §2

[3] = test system: NCI-H727 (G12V) cells, phospho-ERK; assay: as above; assay type: cell-based; conditions: Homo sapiens, 3 hours
How it was run: as §2

| Structure (SMILES) | IC50 (ASPC1 cells, pERK) [nM] | IC50 (H358 cells, pERK) [nM] | IC50 (H727 cells, pERK) [nM] | IC50 (PSN1 cells, pERK) [nM] | IC50 (H460 cells, pERK) [nM] | IC50 (MKN1 cells, pERK) [nM] | IC50 (HCT116 cells, pERK) [nM] | IC50 (KRas^G12V) [µM] | IC50 (KRas^G12D) [µM] | IC50 (KRas^G12R) [µM] | IC50 (A549 cells, pERK) [nM] | IC50 [1] [nM] | IC50 [2] [nM] | IC50 [3] [nM] |
| --- | --- | --- | --- | --- | --- | --- | --- | --- | --- | --- | --- | --- | --- | --- |
| O=S1(=O)NCC2(CCCN(c3nc(OC[C@@]45CCCN4C[C@H](F)C5)nc4c3CCN(c3cc(O)cc5ccc(F)c(Br)c35)C4)C2)N1 (stereo partly drawn) [Example 225, 7-(7-(8-bromo-7-fluoro-3-hydroxynaphthalen-1-yl)-2-(((2R,7aS)-2-fluorohexahydro-1H-pyrrolizin-7a-yl)methoxy)-5,6,7,8-tetrahydropyrido[3,4-d]pyrimidin-4-yl)-2-thia-1,3,7-triazaspiro[4.5]decane 2,2-dioxide] | 23 | 9 | 82 | 328 | 56 | 3 | 158 | ≤ 0.002 | ≤ 0.002 | ≤ 0.002 |  |  |  |  |
| CCc1c(F)ccc2cc(O)cc(N3CCc4c(nc(OCC56CCCN5CCC6)nc4N4CCCn5nc(C(=O)N(C)C)cc5C4)C3)c12 [Example 175, 5-[7-(8-ethyl-7-fluoro-3-hydroxy-1-naphthyl)-2-(1,2,3,5,6,7-hexahydropyrrolizin-8-ylmethoxy)-6,8-dihydro-5H-pyrido[3,4-d]pyrimidin-4-yl]-N,N-dimethyl-4,6,7,8-tetrahydropyrazolo[1,5-a][1,4]diazepine-2-carboxamide] | 53 | 50 | 85 | 7860 | 750 | 58 | 1120 | ≤ 0.002 | ≤ 0.002 | ≤ 0.002 | 326 |  |  |  |
| CCc1c(F)ccc2cc(O)cc(N3CCc4c(nc(OCC5(CN(C)C)CC5)nc4N4C[C@@H]5C(=O)NC(=O)[C@@H]5C4)C3)c12 [Example 200, (3aS,6aR)-5-[2-[[1-[(dimethylamino)methyl]cyclopropyl]methoxy]-7-(8-ethyl-7-fluoro-3-hydroxy-1-naphthyl)-6,8-dihydro-5H-pyrido[3,4-d]pyrimidin-4-yl]-3a,4,6,6a-tetrahydropyrrolo[3,4-c]pyrrole-1,3-dione] | 62 | 77 | 264 | 9110 | 578 | 27 | 832 | ≤ 0.002 | ≤ 0.002 | ≤ 0.002 | 142 |  |  |  |
| O=C1NCC2(CCCN(c3nc(OC[C@@]45CCCN4C[C@H](F)C5)nc4c3CCN(c3cc(O)cc5ccc(F)c(Br)c35)C4)C2)N1 (stereo partly drawn) [Example 216, 7-(7-(8-bromo-7-fluoro-3-hydroxynaphthalen-1-yl)-2-(((2R,7aS)-2-fluorohexahydro-1H-pyrrolizin-7a-yl)methoxy)-5,6,7,8-tetrahydropyrido[3,4-d]pyrimidin-4-yl)-1,3,7-triazaspiro[4.5]decan-2-one] | 92 | 27 | 300 | 1260 | 293 | 19 | 531 | ≤ 0.002 | ≤ 0.002 | 0.003 | 206 |  |  |  |
| CCc1c(F)ccc2cc(O)cc(N3CCc4c(nc(OC[C@@]56CCCN5C[C@H](F)C6)nc4N4CCC[C@]5(C4)NC(=O)NC5=O)C3)c12 [Example 196, (R)-7-(7-(8-ethyl-7-fluoro-3-hydroxynaphthalen-1-yl)-2-(((2R,7aS)-2-fluorohexahydro-1H-pyrrolizin-7a-yl)methoxy)-5,6,7,8-tetrahydropyrido[3,4-d]pyrimidin-4-yl)-1,3,7-triazaspiro[4.5]decane-2,4-dione] | 6 | 1 | 11 | 18 | 2 | 5 | 5 | ≤ 0.002 | ≤ 0.002 | ≤ 0.002 | 2 |  |  |  |
| CN(C)C(=O)c1cc2n(n1)CCCN(c1nc(OC[C@@]34CCCN3C[C@H](F)C4)nc3c1CCN(c1cc(O)cc4ccc(F)c(Br)c14)C3)C2 [Example 218, 5-(7-(8-bromo-7-fluoro-3-hydroxynaphthalen-1-yl)-2-(((2R,7aS)-2-fluorohexahydro-1H-pyrrolizin-7a-yl)methoxy)-5,6,7,8-tetrahydropyrido[3,4-d]pyrimidin-4-yl)-N,N-dimethyl-5,6,7,8-tetrahydro-4H-pyrazolo[1,5-a][1,4]diazepine-2-carboxamide] | 46 | 61 | 86 | 6070 | 845 | 85 | 1340 | ≤ 0.002 | ≤ 0.002 | ≤ 0.002 | 294 |  |  |  |
| CCc1c(F)ccc2cc(O)cc(N3CCc4c(nc(OC[C@@]56CCCN5C[C@H](F)C6)nc4N4CCCC(O)CC4)C3)c12 (stereo partly drawn) [Example 30, 1-(7-(8-ethyl-7-fluoro-3-hydroxynaphthalen-1-yl)-2-(((2R,7aS)-2-fluorohexahydro-1H-pyrrolizin-7a-yl)methoxy)-5,6,7,8-tetrahydropyrido[3,4-d]pyrimidin-4-yl)azepan-4-ol] | 86 | 83 | 227 | 3510 | 203 | 16 | 480 | ≤ 0.002 | ≤ 0.002 | ≤ 0.002 |  | 309 | 447 | 399 |

The next compounds have a lower IC50 (ASPC1 cells, pERK) than those just listed; values first:

| IC50 (ASPC1 cells, pERK) [nM] | IC50 (H358 cells, pERK) [nM] | IC50 (H727 cells, pERK) [nM] | IC50 (PSN1 cells, pERK) [nM] | IC50 (H460 cells, pERK) [nM] | IC50 (MKN1 cells, pERK) [nM] | IC50 (HCT116 cells, pERK) [nM] | IC50 (KRas^G12V) [µM] | IC50 (KRas^G12D) [µM] | IC50 (KRas^G12R) [µM] | IC50 (A549 cells, pERK) [nM] | Structure (SMILES) | IC50 [1] [nM] | IC50 [2] [nM] | IC50 [3] [nM] |
| --- | --- | --- | --- | --- | --- | --- | --- | --- | --- | --- | --- | --- | --- | --- |
| 1 | 2 | 5 |  | 36 | 1 | 62 | ≤ 0.002 | ≤ 0.002 | ≤ 0.002 | 5 | CCc1c(F)ccc2cc(O)cc(N3CCc4c(nc(OC[C@@]56CCCN5C[C@H](F)C6)nc4N4CCCn5nc(C(=O)N(C)C)cc5C4)C3)c12 [Example 66, 5-(7-(8-ethyl-7-fluoro-3-hydroxynaphthalen-1-yl)-2-(((2R,7aS)-2-fluorohexahydro-1H-pyrrolizin-7a-yl)methoxy)-5,6,7,8-tetrahydropyrido[3,4-d]pyrimidin-4-yl)-N,N-dimethyl-5,6,7,8-tetrahydro-4H-pyrazolo[1,5-a][1,4]diazepine-2-carboxamide] |  |  |  |
| 3 | 2 | 5 | 2100 | 38 | 4 | 74 | ≤ 0.002 | ≤ 0.002 | ≤ 0.002 |  | CCc1c(F)ccc2cc(O)cc(N3CCc4c(nc(OC[C@@]56CCCN5C[C@H](F)C6)nc4N4CCCn5nc(C(=O)N6CCOCC6)cc5C4)C3)c12 [Example 193, (5-(7-(8-ethyl-7-fluoro-3-hydroxynaphthalen-1-yl)-2-(((2R,7aS)-2-fluorohexahydro-1H-pyrrolizin-7a-yl)methoxy)-5,6,7,8-tetrahydropyrido[3,4-d]pyrimidin-4-yl)-5,6,7,8-tetrahydro-4H-pyrazolo[1,5-a][1,4]diazepin-2-yl)(morpholino)methanone] |  |  |  |
| 2 | 3 | 6 | 5450 | 49 | 6 |  | ≤ 0.002 | ≤ 0.002 | ≤ 0.002 |  | CCc1c(F)ccc2cc(O)cc(N3CCc4c(nc(OC[C@@]56CCCN5C[C@H](F)C6)nc4N4CCCn5nc(C(=O)N(C)C)c(F)c5C4)C3)c12 [Example 190, 5-(7-(8-ethyl-7-fluoro-3-hydroxynaphthalen-1-yl)-2-(((2R,7aS)-2-fluorotetrahydro-1H-pyrrolizin-7a(5H)-yl)methoxy)-5,6,7,8-tetrahydropyrido[3,4-d]pyrimidin-4-yl)-3-fluoro-N,N-dimethyl-5,6,7,8-tetrahydro-4H-pyrazolo[1,5-a][1,4]diazepine-2-carboxamide] |  |  |  |
